# Source: patent US10144755B2, “Substituted nucleosides, nucleotides and analogs thereof” (ALIOS BIOPHARMA, INC., priority 2012, dated 2018)
# Test system: self-replicating, subgenomic HCV replicon in Huh-7 cells
# Assay: HCV replicon assay
# Format: cell-based
# Conditions: Hepatitis C virus, Huh-7, 72 h
row,SMILES,EC50
1,CCOc1nc(N)nc2c1ncn2[C@@H]1O[C@](F)(COP(=O)(N[C@@H](C)C(=O)OC(C)C)Oc2cccc3ccccc23)[C@@H](O)[C@@]1(C)F (some centres unmarked) [Compound 83],< 1 µM
2,C#C[C@]1(O)[C@H](n2cnc3c(OCC)nc(N)nc32)O[C@](F)(CO[P@](=O)(N[C@@H](C)C(=O)OC2CCCCC2)Oc2ccccc2)[C@H]1O [Compound 34],< 1 µM
3,CCOc1nc(N)nc2c1ncn2[C@@H]1O[C@](F)(COP(=O)(N[C@@H](C)C(=O)OC(C)C)Oc2ccccc2)[C@@H](O)[C@@]1(C)F (some centres unmarked) [Compound 85],< 1 µM
4,C#C[C@]1(O)[C@H](n2cnc3c(OCC)nc(N)nc32)O[C@](F)(CO[P@@](=O)(N[C@@H](C)C(=O)OC2CCCCC2)Oc2ccccc2)[C@H]1O [Compound 35],< 1 µM
5,C#C[C@]1(F)[C@H](n2cnc3c(OCC)nc(N)nc32)O[C@](F)(COP(=O)(N[C@@H](C)C(=O)OC2CCCCC2)Oc2ccccc2)[C@H]1O (some centres unmarked) [Compound 40],1 to 10 µM
6,C[C@H](NP(=O)(OC[C@@]1(F)O[C@@H](n2ccc(=O)[nH]c2=O)[C@](C)(F)[C@@H]1O)Oc1ccccc1)C(=O)OC1CCCCC1 (some centres unmarked) [Compound 30],< 1 µM
7,CC(C)(C)C(=O)SCCOCCOP(=O)(OCCOCCSC(=O)C(C)(C)C)OC[C@@]1(F)O[C@@H](n2ccc(=O)[nH]c2=O)[C@](C)(O)[C@@H]1O [Compound 59],10 to 100 µM
8,CCOc1nc(N)nc2c1ncn2[C@@H]1O[C@](F)(CO[P@@](=O)(N[C@@H](C)C(=O)OC2CCCCC2)Oc2ccccc2)[C@@H](O)[C@@]1(C)F [Compound 33],< 1 µM
9,CC(C)OC(=O)[C@H](C)NP(=O)(OC[C@@]1(F)O[C@@H](n2ccc(=O)[nH]c2=O)[C@](C)(F)[C@@H]1O)Oc1ccccc1 (some centres unmarked) [Compound 31],< 1 µM
10,CCOc1nc(N)nc2c1ncn2[C@@H]1O[C@](F)(COP(=O)(N[C@@H](C)C(=O)OCC(C)C)Oc2cccc3ccccc23)[C@@H](O)[C@@]1(C)F (some centres unmarked) [Compound 84],< 1 µM
11,CCOc1nc(N)nc2c1ncn2[C@@H]1O[C@](F)(CO[P@](=O)(N[C@@H](C)C(=O)OC2CCCCC2)Oc2ccccc2)[C@@H](O)[C@@]1(C)F [Compound 32],< 1 µM
12,CC(C)(C)C(=O)SCCOP(=O)(OCCSC(=O)C(C)(C)C)OC[C@@]1(F)O[C@@H](n2ccc(=O)[nH]c2=O)[C@](C)(O)[C@@H]1O [Compound 58],< 1 µM
13,CCOc1nc(N)nc2c1ncn2[C@@H]1O[C@](F)(COP(=O)(N[C@@H](C)C(=O)OCC(C)C)Oc2ccccc2)[C@@H](O)[C@@]1(C)F (some centres unmarked) [Compound 86],< 1 µM
14,C[C@H](NP(=O)(OC[C@@]1(F)O[C@@H](n2ccc(=O)[nH]c2=O)[C@](C)(O)C1O)Oc1ccccc1)C(=O)OCC(C)(C)C (some centres unmarked) [Compound 5],< 1 µM
15,"C#C[C@]1(F)[C@H](n2cnc3c(OCC)nc(N)nc32)O[C@](F)(COP(=O)(N[C@@H](C)C(=O)OC2CCCCC2)Oc2ccccc2)[C@H]1O (single isomer, unassigned) [Compound 41]",1 to 10 µM
16,C=C[C@]1(O)[C@H](n2ccc(=O)[nH]c2=O)O[C@](F)(CO[P@@](=O)(N[C@@H](C)C(=O)OC(C)C)Oc2ccccc2)[C@H]1O [Compound 77],1 to 10 µM

# Same assay, conditions: Hepatitis C virus; Huh-7 HCV replicon cells, luciferase reporter, 72 h; read-out: EC50
row,SMILES,EC50
1,C[C@]1(F)[C@H](n2ccc(N)nc2=O)O[C@](F)(COP(=O)(O)OP(=O)(O)OP(=O)(O)O)[C@H]1O [Compound 28],< 1 µM
2,"CCOc1nc(N)nc2c1ncn2[C@@H]1O[C@]2(F)CO[P@](=O)(OC(C)C)O[C@H]2[C@@]1(C)O (single isomer, unassigned) [Compound 36]",< 1 µM
3,CC(C)OC(=O)OCOP(=O)(OCOC(=O)OC(C)C)OC[C@@]1(F)O[C@@H](n2ccc(=O)[nH]c2=O)[C@](C)(O)[C@@H]1O [Compound 14],< 1 µM
4,CCOc1nc(N)nc2c1ncn2[C@@H]1O[C@](F)(COP(=O)(OCOC(=O)OC(C)C)OCOC(=O)OC(C)C)[C@@H](O)[C@@]1(C)F [Compound 53],< 1 µM
5,CCOc1nc(N)nc2c1ncn2[C@@H]1O[C@]2(F)CO[P@@](=O)(OC(C)C)O[C@H]2[C@@]1(C)O [Compound 37],< 1 µM
6,CC(C)(C)C(=O)OCOP(=O)(OCOC(=O)C(C)(C)C)OC[C@@]1(F)O[C@@H](n2ccc(=O)[nH]c2=O)[C@](C)(O)[C@@H]1O [Compound 55],< 1 µM
7,CCOc1nc(N)nc2c1ncn2[C@@H]1O[C@]2(F)CO[P@@](=O)(OC(C)C)O[C@H]2[C@@]1(C)F [Compound 43],< 1 µM
8,C#C[C@]1(O)[C@H](n2ccc(=O)[nH]c2=O)O[C@](F)(COP(=O)(OCOC(=O)OC(C)C)OCOC(=O)OC(C)C)[C@H]1O [Compound 51],1 to 10 µM
9,CC(C)OC(=O)OCOP(=O)(OCOC(=O)OC(C)C)OC[C@@]1(F)O[C@@H](n2cnc3c(=O)[nH]c(N)nc32)[C@](C)(O)[C@@H]1O [Compound 49],< 1 µM
10,CCOc1nc(N)nc2c1ncn2[C@@H]1O[C@](F)(COP(=O)(OCOC(=O)OC(C)C)OCOC(=O)OC(C)C)[C@@H](O)[C@@]1(C)O [Compound 52],< 1 µM
11,C[C@]1(F)[C@H](n2cnc3c(=O)[nH]c(N)nc32)O[C@](F)(CO)[C@H]1O [Compound 29],10 to 100 µM
12,C[C@]1(F)[C@H](n2ccc(N)nc2=O)O[C@](F)(CO)[C@H]1O [Compound 27],10 to 100 µM

# Same assay, conditions: read-out: EC50
row,SMILES,EC50
1,CCOc1nc(N)nc2c1ncn2[C@@H]1O[C@]2(F)CO[P@](=O)(OC(C)C)O[C@H]2[C@@]1(C)F [Compound 42],< 1 µM

# Molecular target: NS5B570-Con1 (Delta-21) (Hepatitis C virus genotype 1b, UniProt Q9WMX2)
# Assay: biochemical
# Format: biochemical, HCV (Con-1 strain)
# Conditions: 50 nM NS5B570-Con1, cIRES RNA template, 2 h at 37° C., mean of several independent experiments
row,SMILES,IC50
1,C#C[C@]1(F)[C@H](n2cnc3c(=O)[nH]c(N)nc32)O[C@](F)(COP(=O)(O)OP(=O)(O)OP(=O)(O)O)[C@H]1O [Compound 44],< 1 µM

# Same assay, conditions: 50 nM NS5B570-Con1, cIRES RNA template, 2 h at 37° C., mean of several independent experiments; read-out: IC50
row,SMILES,IC50
1,C[C@]1(Cl)[C@H](n2ccc(=O)[nH]c2=O)O[C@](F)(COP(=O)(O)OP(=O)(O)OP(=O)(O)O)[C@H]1O [Compound 46],< 1 µM

# Same assay, conditions: IC50, 50 nM NS5B570-Con1, cIRES RNA template, 2 h at 37° C., mean of several independent experiments
row,SMILES,IC50
1,C#C[C@]1(O)[C@H](n2cnc3c(=O)[nH]c(N)nc32)O[C@](F)(COP(=O)(O)OP(=O)(O)OP(=O)(O)O)[C@H]1O [Compound 9],< 1 µM
2,"C[C@]1(O)[C@H](n2ccc(=O)[nH]c2=O)O[C@](F)(COP(O)(=S)OP(=O)(O)OP(=O)(O)O)[C@H]1O (single isomer, unassigned) [Compound 7a]",< 1 µM
3,"C[C@]1(O)[C@H](n2ccc(=O)[nH]c2=O)O[C@](F)(COP(O)(=S)OP(=O)(O)OP(=O)(O)O)[C@H]1O (single isomer, unassigned) [Compound 7b]",1 to 10 µM
4,O=c1ccn([C@@H]2O[C@](F)(COP(=O)(O)OP(=O)(O)OP(=O)(O)O)[C@@H](O)[C@]2(O)CF)c(=O)[nH]1 [Compound 76],< 1 µM
5,C#C[C@]1(F)[C@H](n2cnc3c(=O)[nH]c(N)nc32)O[C@](F)(COP(=O)(O)OP(=O)(O)OP(=O)(O)O)[C@H]1O [Compound 69],< 1 µM

# Molecular target: human mitochondrial RNA polymerase (Homo sapiens, UniProt O00411)
# Sequence (O00411 42-1230): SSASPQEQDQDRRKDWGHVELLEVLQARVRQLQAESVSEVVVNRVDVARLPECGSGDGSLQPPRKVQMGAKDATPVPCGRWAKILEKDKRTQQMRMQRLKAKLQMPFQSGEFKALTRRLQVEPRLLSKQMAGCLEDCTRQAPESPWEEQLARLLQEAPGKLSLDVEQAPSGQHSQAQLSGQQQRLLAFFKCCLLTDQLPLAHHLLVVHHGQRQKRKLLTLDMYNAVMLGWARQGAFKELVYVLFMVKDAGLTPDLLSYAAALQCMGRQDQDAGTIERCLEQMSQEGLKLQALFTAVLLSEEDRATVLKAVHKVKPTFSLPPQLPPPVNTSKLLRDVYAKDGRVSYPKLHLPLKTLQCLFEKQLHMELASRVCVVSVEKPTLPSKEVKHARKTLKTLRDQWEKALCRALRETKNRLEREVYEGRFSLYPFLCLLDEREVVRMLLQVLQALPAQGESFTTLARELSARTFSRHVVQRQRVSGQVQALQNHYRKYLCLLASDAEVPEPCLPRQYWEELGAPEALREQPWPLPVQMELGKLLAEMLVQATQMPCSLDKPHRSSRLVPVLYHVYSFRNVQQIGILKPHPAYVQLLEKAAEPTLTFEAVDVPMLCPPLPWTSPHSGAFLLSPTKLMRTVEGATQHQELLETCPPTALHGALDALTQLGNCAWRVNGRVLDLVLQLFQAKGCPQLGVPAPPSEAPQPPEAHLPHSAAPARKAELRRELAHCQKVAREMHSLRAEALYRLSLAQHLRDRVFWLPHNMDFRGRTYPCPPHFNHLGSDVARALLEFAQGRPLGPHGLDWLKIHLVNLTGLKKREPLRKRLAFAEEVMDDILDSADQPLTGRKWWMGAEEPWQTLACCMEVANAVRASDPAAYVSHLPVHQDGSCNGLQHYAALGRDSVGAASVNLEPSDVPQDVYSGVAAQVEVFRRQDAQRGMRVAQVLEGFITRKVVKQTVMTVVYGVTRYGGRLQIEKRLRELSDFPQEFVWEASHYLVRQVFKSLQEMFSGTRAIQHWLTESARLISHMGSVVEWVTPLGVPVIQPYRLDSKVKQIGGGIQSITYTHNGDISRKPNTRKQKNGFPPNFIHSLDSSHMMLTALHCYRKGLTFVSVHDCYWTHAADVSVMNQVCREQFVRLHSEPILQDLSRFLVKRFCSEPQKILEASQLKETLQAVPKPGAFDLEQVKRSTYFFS
# Assay: DdRp assay: incorporation of nucleotides by human mitochondrial RNA polymerase (HMRP)
# Conditions: single turnover, 100 μM NTP, 30° C., 1 minute; product band on gel
SMILES,"incorporation by HMRP, template for GTP analogs (FIG. 11)","incorporation by HMRP, template for UTP analogs (FIG. 10)"
Nc1ncnc2c1ncn2[C@@H]1O[C@H](COP(=O)(O)OP(=O)(O)OP(=O)(O)O)[C@@H](O)[C@H]1O [ATP],poor substrate for incorporation,–
C[C@@]1(F)[C@H](O)[C@@H](COP(=O)(O)OP(=O)(O)OP(=O)(O)O)O[C@H]1n1ccc(=O)[nH]c1=O [2′-Me-2′-F-UTP],–,not efficient substrates for incorporation by HMRP

# Test system: mitochondrial protein synthesis (COX I / SDH A) in HepG2 cells
# Assay: not given
# Conditions: not given
row,SMILES,inhibition of mitochondrial protein synthesis (COX I/SDH A ratio)
1,Nc1ccn([C@H]2CC[C@@H](CO)O2)c(=O)n1 [ddC],strongly inhibit mitochondrial protein synthesis
2,COc1nc(N)nc2c1ncn2[C@@H]1O[C@H](COP(=O)(N[C@@H](C)C(=O)OCC(C)(C)C)Oc2cccc3ccccc23)[C@@H](O)[C@@]1(C)O (some centres unmarked) [INX-08189/BMS-986094],strongly inhibit mitochondrial protein synthesis
3,Cc1cn([C@H]2C=C[C@@H](CO)O2)c(=O)[nH]c1=O [d4T],not to inhibit mitochondrial protein synthesis at concentrations up to 100 μM
